The results in this text go back to a melting point compilation (Tetko et al.; mined from patent text by program, amines drawn as free bases though some values may be those of a salt).

Turning to `COC(=O)CCc1cc2cc(F)c(Cl)cc2[nH]1`, the melting point – broadly, the temperature of the solid-liquid transition – was in the range of 138 to 139 °C.
In turn, `c1ccc(COc2cccc3sncc23)cc1` had a melting point of 47 to 49 °C.
The result for `Cc1cc(C)cc(C(=O)N2CCC(Nc3nc4ccccc4n3Cc3cccs3)CC2Cc2ccccc2)c1` (stereo not drawn) reads 201 °C; that for `O=S(=O)(c1c(Br)c(Br)n(CCl)c1-c1ccc(Cl)cc1)C(F)(F)F`, 153 to 156 °C.
With `O=C(O)C1=Cc2cc(SC(F)(F)F)ccc2SC1C(F)(F)F` (stereo not drawn), the melting point was in the range of 129 to 132 °C.
Take `COc1cccc(C2Cc3ccccc3C2=O)c1` (stereo not drawn): the melting point is 144 to 146 °C.
As to `COc1ccc(-c2csc(NC(=O)C(=O)OCC(C)c3ccccc3)n2)cc1` (stereo not drawn), the melting point is 150 to 152 °C.
As for `CC(=O)Nc1ccc(/C=C/c2cc(/C=C/c3ccc4cc[nH]c4c3)[nH]n2)cc1`, the melting point is above 300 °C.
The compound `CCCOc1ccccc1-c1nc(O)cc(C(=O)NC)n1` displayed a melting point of 165 to 166 °C.
With `NC(=O)N(c1ccc(-c2c(CCO)sc3ncnc(N)c23)cc1)c1cccc(C(F)(F)F)c1`, the melting point lay within 155 to 158 °C.
Compound `COCC(=O)OC1(C(=O)COC(C)=O)CCC2C3CC(C)C4=CC(=O)C=CC4(C)C3C(O)CC21C` (stereo not drawn) displayed a melting point of 150 to 152 °C.
The compound `O=C(c1ccccc1)C(OCCN1CCCCC1)c1ccccc1` (stereo not drawn) came in with a melting point of 53 °C.
Compound `Cc1cc(C)cc(C(=O)c2c(C(C)C)c(=O)[nH]c(=O)n2CC2CCCC2)c1` registered a melting point of 167 to 168 °C.
`O=C(CN1CCN(c2ccncc2)CC1)c1ccc(CC(O)=S)cc1` showed a melting point of 240 to 244 °C.
`CNc1nc(C)c(C(=O)c2ccc(N)c(N)c2)s1`: the melting point lay within 115 to 125 °C.
The result for `OCc1cccc(-c2cccc(-c3cn([C@H]4CN5CCC4CC5)nn3)c2)c1` reads 201 °C; that for `Cn1nnnc1NC(=O)c1cccc2cccnc12`, 224 to 225 °C; that for `COC(=O)c1c(C)cc(OC)c(C)c1O`, 87 to 90 °C.
In the case of `O=C(Nc1ccc(CP(=O)(O)O)cc1)C1=Cc2cc(C3CCCCC3)ccc2CC1`, the melting point was in the range of 203 to 205 °C.
Compound `CC(=O)Nc1ccc(C(NC(c2ccccc2)c2ccccc2)P(O)O)cc1` (stereo not drawn) returned a melting point of 196 to 200 °C.
The compound `COC(=O)c1sc2ccc([N+](=O)[O-])cc2c1N` came in with a melting point of 208 to 210 °C.
With `Cc1ccc(-c2c(C#N)nn(-c3c(Cl)cc(C(F)(F)F)cc3Cl)c2N)cc1`, the melting point fell in the range of 243 to 244 °C.
The figure for `CCC(C)(C)C(=O)Oc1cc2c(s1)CCN([C@H](C(=O)OC)c1ccccc1Cl)C2` is 98 to 100 °C.
The figure for `Cc1ccc(C(O)(Cc2nnnn2C)c2ccc(C)cc2C)c(C)c1` is 175 to 177 °C; for `CC(C)c1cc(C(=O)Nc2ccc(C(=O)O)cc2)oc1C(C)C` it is 120 to 121 °C; for `Cc1cc(SC2=C(O)CC(C3CCCC3)(C3CCCC3)OC2=O)c(C(C)(C)C)cc1N` it is 163 to 165 °C.
`CCOC(=O)c1oc2ccc([N+](=O)[O-])cc2c1OC(C)C`: the melting point was determined as 122 °C.
`COc1cc2cc(C(=O)N3CC(CCl)c4c3cc([N+](=O)[O-])c3cc(S(=O)(=O)NCCO)ccc43)[nH]c2c(OC)c1OC` (stereo not drawn) showed a melting point of 257 to 258 °C.
The compound `Cc1nc2cc(C#N)ccc2n1-c1ccc(C(=O)N(C)[C@@H]2CCNC2)cc1` showed a melting point of 178 to 180 °C.
Consider `O=Cc1cc(Br)c(C=O)cc1Br`, for which the melting point was 184 to 189 °C.
The result for `O=C(CCC(F)(F)Cl)Nc1ccccn1` reads 64 to 65 °C.
`O=C(Nc1cccnc1)N1CCN(c2nccc(-c3cccc(F)c3)n2)CC1` yielded a melting point of 210 to 211 °C.
In the case of `COc1ccc(C2(OC)OC2(C)C)cc1` (stereo not drawn), the melting point fell in the range of 41 to 43 °C.
Compound `O=C(O)CCCN(C(=O)c1ccc(Cl)c(Cl)c1)c1ccc2c(c1)CCC2` returned a melting point of 58 to 59 °C.
The figure for `CN(C)c1ccc(-c2ccnc3c(C(=O)c4cccs4)cnn23)cc1NC(=O)c1ccncc1` is 151 to 153 °C.
`CCOC(=O)c1ccc(Br)c(OC(F)F)c1Br` had a melting point of 45 to 47 °C.
Compound `CC(=O)SC1(C(=O)O)CCCC1` yielded a melting point of 120 to 122 °C.
`CC(=O)c1cccc2nc[nH]c12` displayed a melting point of 220 to 223 °C.
`O=C(CCCN1CCC2(CC1)OC(=O)c1ccccc12)c1ccc(F)cc1` gave a melting point of 183 to 184 °C.
As for `CC(=O)N1CCC(CC(O)c2ccc(N(C)C)cc2)CC1` (stereo not drawn), the melting point fell in the range of 119 to 120 °C.
`Cc1c2c(c(-c3ccc(C(F)(F)F)cc3)c3c4c(ccc13)OCO4)CNC2=O` came in with a melting point of 303 to 305 °C.
As for `O=C(c1ccc(Cl)cc1)c1ccc[nH]1`, the melting point is 106 to 109 °C.
Regarding `CCCOc1ccc(S(=O)(=O)N2CCN(CCOC(C)=O)CC2)cc1-c1nc2c(CCCF)cn(CC)c2c(=O)[nH]1`, the melting point was in the range of 134 to 135 °C.
As to `CCOc1nc(=O)n(C(=O)NC(Cl)=C(Cl)Cl)s1`, the melting point was 123 °C.
The result for `CN(C(=O)c1cc2c(cn1)[nH]c1ccccc12)c1ccccc1` reads 237 to 240 °C.
As to `COc1cc2c(c(C(N)=O)c1OC)CCNCC2c1ccccc1` (stereo not drawn), the melting point lay in the range of 178 to 180 °C.
`O=C([C@@H]1CCCN1C(=O)OCc1ccccc1)N1CCOCC1` had a melting point of 139 to 140 °C.
Take `Cc1ccc(-c2ncc(Cl)cc2-c2ccc(S(C)=O)cc2)cn1` (stereo not drawn): the melting point is 122 to 123 °C.
`CN(C)C=C(C#N)C=NN(C)C` came in with a melting point of 130 to 134 °C.
In turn, `CCCC(=O)Nc1cccc(-c2ccc3nnc(C)n3n2)c1` yielded a melting point of 195 to 198 °C.
The result for `Nc1ccc(CC(NC(=O)C(c2ccccc2)c2ccccc2)c2ccccc2)cc1` (stereo not drawn) reads 161 to 163 °C.
For the compound `Cc1nc2ccc3c(c2o1)OC(CN1CC=C(c2c[nH]c4ccc(Cl)cc24)CC1)CO3` (stereo not drawn), the melting point fell in the range of 144 to 145 °C.
In the case of `Cc1cc(-n2nc(C(F)(F)F)cc2-c2ccc(S(C)(=O)=O)cc2)ccc1Cl`, the melting point was in the range of 152 to 154 °C.
In turn, `COC(=O)c1ccc(/C=C/C(=O)O)c(Cl)c1` registered a melting point of 221 °C.
For the compound `O=C(O)c1ccc2nc3ccc(C(=O)O)nn3c(=O)c2c1`, the melting point is above 285 °C.
Take `O=C(c1ccc2nonc2c1)N1Cc2cccnc2Nc2ccccc21`: the melting point lay in the range of 193 to 194 °C.
Compound `COc1cc2c(cc1OC)CN(CCc1cccc(NC(=O)c3cccc4c(=O)c5cccc(F)c5[nH]c34)c1)CC2` came in with a melting point of 178 °C.
In turn, `CC(=O)c1ccc2c(c1)C1(c3ccccc3-2)c2ccccc2-c2ccc(C(C)=O)cc21` displayed a melting point of 255 to 257 °C.
`O=C1c2cccc([N+](=O)[O-])c2C(=O)N1c1ccc(O)cc1` returned a melting point of 202 °C.
`C=CCc1c(O)c(C)cc2ccc(=O)oc12` registered a melting point of 161 to 162 °C.
The figure for `Cc1noc(NS(=O)(=O)c2ccccc2-c2ccc(-c3ncco3)cc2CN(C)C(=O)C2CC2)c1C` is 92 to 102 °C.
With `CCOC(=O)COc1cc2c(C)csc2c(Cl)c1Cl`, the melting point lay in the range of 115 to 117 °C.
Compound `CC(=O)OCCNC(=O)NCc1ccc(-c2csc(N=C(N)N)n2)o1` came in with a melting point of 200 to 202 °C.
`CC1(C)CCC(C)(C)c2cc3oc(-c4ccc(C(=O)O)cc4)nc3cc21` returned a melting point of 290 °C.
With `Oc1ccc(O)c(-c2nc3ccc(O)cc3o2)c1`, the melting point fell in the range of 278 to 280 °C.
For the compound `COC(=O)[C@H]1[C@@H]2CC[C@@](NC(=O)OC(C)(C)C)(C(=O)O)[C@@H]21`, the melting point is 164 to 165 °C.
`COc1ccc(C(NCCC2CCCCC2)c2cccc(Nc3c(N)c(=O)c3=O)c2)cc1` (stereo not drawn): the melting point fell in the range of 168 to 171 °C.
In turn, `CCOC(=O)/C(=N\OC1CCSC1)c1csc(N)n1` (stereo not drawn) showed a melting point of 151 to 152 °C.
`COc1cc2c(=O)n(CC3CCCO3)c3c4cc5c(cc4ncc3c2cc1OC)OCO5` (stereo not drawn) gave a melting point of 270 to 273 °C.
`CC(=O)OCC(C)C1=CCC2C3CC=C4CC(OC(C)=O)CCC4(C)C3CCC12C` (stereo not drawn) returned a melting point of 116 to 117 °C.
The figure for `O=C(O)CC(NC(=O)OCc1ccccc1)C(=O)CON1C(=O)Cc2ccccc21` (stereo not drawn) is 58 to 70 °C; for `CC(=O)n1cc(Cl)c(-c2cccc(C(F)(F)F)c2)c1` it is 70 to 71.5 °C; for `Oc1ccc(-c2n[nH]c3ccccc23)cc1` it is 189 to 190 °C.
Take `CCOC(=O)COC1CCC2C3CCC4N=CCCC4(C)C3CCC12C` (stereo not drawn): the melting point was 170 to 172 °C.
`COc1ccc(C(=O)Nc2ccccc2)cc1NS(=O)(=O)c1cn(C)cn1` returned a melting point of 250 to 252 °C.
Consider `COc1cc2c3ccc(OC)c(OC)c3c(=O)n(Cc3ccccc3)c2cc1OC`, for which the melting point is 183 to 184 °C.
The compound `COc1cccc(C(=O)C=CC2=CCC(OC)(N(C)C)C=C2)c1OC` (stereo not drawn) came in with a melting point of 168 to 169 °C.
Compound `O=C(C=Cc1ccsc1)Nc1nnn[nH]1` had a melting point of 273 to 274 °C.
The figure for `CC(=O)O[C@@H]1CC(c2ccccc2)(c2ccccc2)[C@@H]2CN(Cc3ccccc3)C[C@@H]2C1=O` (racemic) is below 40 °C; for `CCCCOCCOc1ccc(-c2ccc3c(c2)C=C(C(=O)Nc2ccc(/C(Cc4nccn4CCC)=N/O)cc2)CCN3CC(C)C)cc1` it is 154 °C.
Compound `CN1CCC(OC2c3cccc(-c4cccc(N)c4)c3CCn3cc(-c4ccccc4)nc32)CC1` (stereo not drawn) yielded a melting point of 120 °C.
For `CC(C)[C@H](NC(=O)N(C)Cc1nc2ccccc2[nH]1)C(=O)N[C@@H](Cc1ccccc1)C[C@H](O)[C@H](Cc1ccccc1)NC(=O)OCc1cccnc1`, the melting point was in the range of 97 to 100 °C.
The compound `COc1ccc2oc(Cc3cc(C(F)(F)F)cc(C(F)(F)F)c3)c(CC#N)c2c1` showed a melting point of 112 °C.
`COC(=O)CCNC(=O)c1cc(Cl)c([N+](=O)[O-])cc1[N+](=O)[O-]` had a melting point of 139 to 141 °C.
In turn, `O=C(N[C@H](Cc1cccc(OCC(F)(F)F)c1)[C@@H](O)c1ccc(F)cc1)c1cccc2c1C=CCCC2` (racemic) yielded a melting point of 172 to 173 °C.
For the compound `CCCCc1nc2c(N)nc3cccnc3c2n1CCN`, the melting point lay in the range of 175 to 176 °C.
Turning to `CCN(CC)CCNC(=O)c1cc(Cl)c(N)cc1OCCNC(C)=O`, the melting point fell in the range of 143 to 145 °C.
As to `O=C(NCCN1CCN(c2cc(C(F)(F)F)ccn2)CC1)c1ccc(F)cc1`, the melting point came to 159 °C.
